Test system: Entamoeba histolytica
Test: In vitro amoebicidal activity against HM-1:1MMS strain of Entamoeba histolytica
Assay type: functional, organism-based

| Compound | IC50 (Entamoeba histolytica) [µM] | IC50 [µM] |
| --- | --- | --- |
| Fc1cccc(F)c1/N=C(\S)N/N=C/c1cccs1 | 5.73 |  |
| S=C(NCc1ccccc1Cl)N/N=C/c1cccs1 | 5.74 |  |
| Fc1ccc(/N=C(\S)N/N=C/c2cccs2)c(F)c1 | 6.18 |  |
| S=C(N/N=C/c1cccs1)N1CCCc2ccccc21 | 2.78 |  |
| S=C(N/N=C/c1cccs1)N1CCCC1 | 3.2 |  |
| 3,4-Dihydro-2H-quinoline-1-carbothioic acid thiophen-2-ylmethylene-hydrazide with PdCl2 complex |  | 1.15 |
| Cc1ncc([N+](=O)[O-])n1CCO [METRONIDAZOLE] | 2.03 |  |
| Di(methylsulfinyl)methane with PdCl2 complex |  | 8.24 |
| thiophene-2-carbaldehyde N-(2,4-difluorophenyl)thiosemicarbazone with PdCl2 complex |  | 2.65 |
| thiophene-2-carbaldehyde N-(2,6-difluorophenyl)thiosemicarbazone with PdCl2 complex |  | 2.41 |
| thiophene-2-carbaldehyde N-(2-chlorobenzyl)thiosemicarbazone with PdCl2 complex |  | 3.06 |
